Test results published in patent US5744492A, “Method for inhibiting angiogenesis” (United States of America, priority 1994, dated 1998).

Assays:
HUVECs [1] = assay: bFGF-stimulated HUVEC growth in low serum (1% FCS), crystal violet; type: cell-based; conditions: Homo sapiens, bFGF 10 ng/ml
Procedure: (§1) Human umbilical vein endothelial cells (H 930) were generously supplied by Dr. Tom Maciag, American Red Cross (Gaithersburg, Md., USA) and were used between passages 9 and 14 to avoid senescence. HUVECs were grown on fibronectin-coated tissue culture plastic (200 μg/150 mm dish) in complete medium (Medium 199 (M-199) containing 5 U/mL preservative-free heparin, 25.5 μg/mL ECGS, 10% fetal bovine serum and 100 U/mL penicillin, 100 μg/mL streptomycin, and 0.25 μg/mL fungizone).
Growth inhibition of HUVECs by compound 1 was measured by crystal violet nuclear stain. Briefly, 50,000 cells were seeded per well in 24 well plates using complete medium in the presence of increasing concentrations of compound 1 (0.01-10 μM) or DMS0 vehicle control (0.1%) and cultures were incubated for 24-120 hours. […] Optical density of the eluted samples was determined at 540 nm and the results were expressed as percent of DMSO control cell growth. Data are expressed as percentage of control value and are presented as mean±SEM (n=3).
To evaluate the effect of bFGF on HUVECs growth, cells were plated in low serum medium (1% FCS) in the presence of 10 ng/ml of bFGF and increasing concentrations of compound 1. At the indicated time, cells were fixed, stained, and quantitated as described above.

HUVECs [2] = assay: HUVEC adhesion to basement membrane substrata; type: cell-based, human
Procedure: as §1
Adhesion of control and compound 1-treated HUVECs to specific substrata was tested as follows. Glass slides coated with specific adhesion substrata were prepared by placement of 10 μL aliquots of 25 nM each fibronectin,laminin, gelatin or type IV collagen into triplicate wells of multichamber slides. Slides were incubated at 37° C. for 2 hours and then air-dried overnight. The following day the slides were blocked with 300 μL of blocking buffer (Tris […] pH 7.8, NaCl 111 mM, CaCl2 5 mM, and 1% BSA) for 30 min at 37° C. HUVECs were harvested with trypsin-EDTA and allowed to recover at 37° C. in complete medium for at least 1 hr. The cells were then washed free of serum and resuspended at 1×10^6 cells/mL in control medium followed by addition to the coated wells (200 μL) and incubation at 37° C. for 90 min. After incubation, the slides were washed gently three times with DPBS and the adherent cells were fixed and stained as above. Five high power fields per well in triplicate were counted to determine the number of cells attached to the different substrata. Data are expressed as percentage of control cell adhesion (x±SEM, n=3).

MMP-2 = assay: Gelatin zymography of HUVEC conditioned medium, MMP-2 gelatinase activity (basal); type: cell-based, human; conditions: 24 hr
Procedure: as §1
Angiogenesis is characterized by a local degradation of subendothelial basement membrane by endothelial cell-secreted gelatinases. Aliquots of concentrated HUVEC conditioned medium from compound 1-treated and control cells were subjected to gelatin zymography, in order to test the effect of compound 1 on metalloproteinase production.
Gelatin zymography was carried out as described in Brown, et al., Cancer Research 50:6184-6191 (1990). HUVECs were seeded at 1.2×10^5 /cm^2 in 25 cm^2 fibronectin-coated tissue culture flasks in complete medium containing increasing concentrations of compound 1 (0.1-10 μM) or DMSO vehicle control. After 18 hr of culture, the complete medium was removed and the cells were washed once with serum-free M-199 supplemented with 5 μg/mL bovine insulin, 5 μg/mL human transferrin and 5 ng/mL sodium selenite (ITS). […]

β-actin = assay: Northern blot, β-actin probe for quantitation of RNA load in HUVECs; type: cell-based, human; conditions: 24 hr
Procedure: as §1
HUVECs were grown to confluence as described. Fresh complete medium with test compounds was added to confluent cells for an additional 24 hr incubation. bFGF (10 ng/mL), and/or compound 1 (10 μM) or DMSO control (0.1%) were added as indicated below. Total RNA was isolated by the guanidine isothiocyanate/CsCl method. Aliquots of RNA (7.5 μg) were separated on 1% agarose/formaldehyde gels, passively transferred to GeneScreen Plus membrane in 20X SSC, then cross-linked with ultraviolet light. Blots were prewashed for 1 hr at 42° C. in 1M NaCl, 10 mM Tris, 1 mM EDTA, 0.1% SDS and then hybridized overnight at 42° C. with a formamide-containing buffer (hybridization buffer final: 50% formamide, 4X SSC, 10 mM Tris pH 7.5, IX Denhardt solution, 0.2% SDS, 125 μg/ml salmon sperm DNA) with a random-primed 300 bp insert for MMP-2 (gift of Dr. William Stetler-Stevenson, Laboratory of Pathology, NCI). Blots were washed under stringent conditions then exposed to film. After removal of MMP-2 probe, blots were rehybridized with β-actin probe for quantitation of the RNA load. Results were quantitated by densitometric evaluation of the autoradiographs.
Lane 1 corresponds to the mRNA from HUVECs treated with DMSO (control). Lanes 2-4 show the mRNA isolated from HUVECs treated with compound 1 (10 μM) alone, compound 1 (10 μM) and bFGF (10 ng/mL), bFGF (10 ng/mL) alone, respectively.

[3] = test system: chick chorioallantoic membrane; assay: Chick chorioallantoic membrane (CAM) angiogenesis assay; type: in vivo; conditions: 48 hr
Procedure: The chick chorioallantoic or yolk sac membrane (CAM) assays for angiogenesis are important in vivo models of microvessel formation. […] Briefly, fertilized chick embryos with the yolk intact were removed from their shells on day 3 of development and incubated at 37° C.

inhibition of proMMP-2 and its activated form (in words) (MMP-2; 0.1-10 μM): dose-dependent inhibition
SMILES: NC(=O)c1nnn(Cc2cc(Cl)c(C(=O)c3ccc(Cl)cc3)c(Cl)c2)c1N [Compound 1, 5-amino-1-(4-(4-chlorobenzoyl)-3,5-dichlorobenzyl)1,2,3-triazole-4-carboxamide]
inhibition at 10 µM (HUVECs [1]; 72 h, 3 days from seeding, P2<0.01): 25%
inhibition at 10 µM (HUVECs [1]; 120 h, 5 days from seeding, P2<0.005): 45%
inhibition of HUVEC adhesion to all substrata tested (in words) (HUVECs [2]; 0-10 μM, 18 hr pretreatment): inhibited in a dose-dependent fashion
inhibition of HUVEC adhesion to collagen type IV (in words) (HUVECs [2]; 1.0 μM, 18 hr pretreatment, P2<0.027): statistically significant
inhibition of HUVEC adhesion to laminin (in words) (HUVECs [2]; 1.0 μM, 18 hr pretreatment, P2<0.04): statistically significant
inhibition of HUVEC adhesion to fibronectin (in words) (HUVECs [2]; 1.0 μM, 18 hr pretreatment, P2<0.043): statistically significant
inhibition of HUVEC adhesion to laminin (in words) (HUVECs [2]; 10.0 μM, 18 hr pretreatment, p2<0.004): statistically significant
inhibition of HUVEC adhesion to fibronectin (in words) (HUVECs [2]; 10.0 μM, 18 hr pretreatment, p2<0.011): statistically significant
inhibition of HUVEC adhesion to collagen type IV (in words) (HUVECs [2]; 10.0 μM, 18 hr pretreatment, p2<0.025): statistically significant
inhibition of HUVEC adhesion to gelatin (in words) (HUVECs [2]; preincubation of HUVECs with compound): did not significantly inhibit adhesion
inhibition at 10 µM (MMP-2; Homo sapiens, HUVEC, 10.0 μM, read-out: decrease in MMP-2 (densitometric analysis)): 50%
β-actin (densitometer) (β-actin; Control + Compound 1, 10 μM): 127 Densitometer units
β-actin (densitometer) (β-actin; bFGF 10 ng/mL + Compound 1 10 μM): 210 Densitometer units
% Inhibition (capillary formation in vivo) ([3]; 10 μM): 55%
Eggs with avascular zones/total ([3]; 10 μM): 19/34
embryos with large avascular zone ([3]; 10 μM): 55%
% Inhibition (capillary formation in vivo) ([3]; 20 μM): 67%
Eggs with avascular zones/total ([3]; 20 μM): 20/30
embryos with large avascular zone ([3]; 20 μM): 67%
angiogenesis inhibitory effect (in words) ([3]; 10 or 20 μM): dose-dependent
